{"source": "patent US20240139199A1", "about": "“USE OF ADENINE IN PREPARATION OF DRUG FOR TREATING DIABETIC ULCERS” (Energenesis Biomedical Co., Ltd., priority 2021, published 2024)", "key": {"fibroblast": {"system": "fibroblast", "test": "fibroblast growth inhibition (stated finding, no method given)", "assay_type": "cell-based"}, "COX-2": {"system": "COX-2", "test": "COX-2 protein expression (stated finding, no method given)", "assay_type": "cell-based"}, "diabetic ulcers": {"system": "diabetic ulcers", "test": "double arm, double-blind study of adenine gel in subjects with diabetic ulcers (wound healing)", "assay_type": "in vivo, human", "experimental": "The efficacy of adenine and/or a pharmaceutically acceptable salt thereof as a therapeutic agent for diabetic ulcers was evaluated through a double arm, double-blind study as disclosed in the present disclosure. The groups consist of a 0.02% adenine gel group and a placebo group. The basic information of the subjects is shown in Table 1, while the analysis of wound healing rates based on the Wagner-[…] ulcer classification system and initial wound area size is presented in Tables 2 to 4 below, respectively. Similarly, in a double arm, double-blind study as described in Example 1, the present disclosure evaluated the effects of the disclosed adenine and/or a pharmaceutically acceptable salt thereof as a medicament for treating the diabetic ulcers."}}}
{"smiles": "Nc1ncnc2nc[nH]c12", "note": "[adenine]", "values": [{"measurement": "fibroblast growth", "setting": "fibroblast", "value": "inhibit fibroblast growth"}, {"measurement": "protein expression of COX-2", "setting": "COX-2", "value": "reduce protein expression of COX-2"}, {"measurement": "wound healing effect (in words)", "setting": "diabetic ulcers; Grade 1 and/or Grade 2 ulcers, or wound area 1.5 to 25 square centimeters", "value": "remarkably superior effects in accelerating and enhancing wound healing"}, {"measurement": "scar formation", "setting": "diabetic ulcers; directly administered to ulcer wounds in diabetic patients", "value": "scar formation is reduced"}, {"measurement": "onset of wound healing (in words)", "setting": "diabetic ulcers; results from Table 5", "value": "rapid and effective healing starting from the fourth week"}]}
